From article PMC5943252, “Contrasting roles for actin in the cellular uptake of cell penetrating peptide conjugates” (Scientific Reports, 2018)
Entries after “also recorded” stand apart in the source; their conditions may differ.

Assays:
[1] = tested on: A431 cells; test: Live cell confocal microscopy of uptake of endocytic probes and R8 conjugates, with or without actin inhibitors; type: cell-based
Protocol: (§1) HeLa or A431 cells were seeded on 35 mm MatTek dishes (Ashland, US) at respective densities of 5 × 10^5 cells/dish and 1.0 × 10^6 cells/dish and maintained in 2.5 mL D-MEM containing 10%, 100 IU/mL penicillin and 100 µg/mL streptomycin. Cells were then allowed to adhere for 24 hr at 37 °C/5% CO2 to reach a confluence of ~80%. On the day of experimentation, they were washed with PBS and then incubated with 100 µl serum-free D-MEM (thus reducing well described serum binding effects[32]) containing either 2 µM CPP conjugate (R8-Alexa488 or EGFP-R8), 5 µg/ml transferrin-Alexa 647 (TF-647) or 0.1 mg/ml dextran (10 kDa)-Alexa 647 (Dex-647). The cells were then incubated for 1 hr (or 30 min for TF-647) at 37 °C/5% CO2 before washing 3x with PBS (TF-647 or Dex-647) or PBS 0.5 mg/mL heparin (R8-conjugates). They were then washed once with PBS, prior to the addition of 2 mL of imaging medium (phenol red free RPMI, 20 mM HEPES pH 7.4) and analysis by live cell confocal microscopy.
Cells were seeded on MatTek dishes as previously described and were washed with PBS before preincubation at 37 °C with diluent control (DMSO) or actin inhibitors: 10 µM Cyt D for 15 min; 0.1–1 µM Lat B for 30 min; 0.2–4 µM JAS for 45 min; 50–100 µM Y27632 for 4 hr in serum-free D-MEM at 37 °C/5% CO2. Endocytic probes (TF-647, Dex-647) or R8-conjugates were then incubated with the cells in the absence (control) or presence of the inhibitors and further incubated at 37 °C/5% CO2 for times specified in figure legends prior to analysis by confocal microscopy. For pulse chase experiments, A431 cells were incubated with 0.1 mg/ml Dex-647 for 2 hr (pulse) followed by washing and a further 4 hr (chase) in fresh complete growth medium. EGFP-R8 (2 µM) was then added for 1 hr in the absence or presence of 10 µM Cyt D. EGFP-R8 and Dex-647 subcellular distribution was then analysed in live cells using confocal microscopy. For low temperature experiments, cells were preincubated with Cyt D as above and then placed on ice for 2 min prior to addition of ice cold EGFP-R8. The cells were then maintained under these conditions for 1 hr prior to analysis by confocal microscopy.
Analysis was performed on a Leica SP5 confocal laser scanning microscope, equipped with laser lines: 405 Blue Diode (Excitation wavelength 405 nm for Hoechst 33342) Argon (Excitation wavelength 488 nm for Alexa 488 or EGFP), Helium Neon Laser 1 (Excitation wavelength 543 nm for Tetramethyl-Rhodamine Phalloidin (Rh-P)) and Laser 2 (Excitation wavelength 633 nm for Alexa 647 conjugates). All images presented in this study were obtained using a HCX PL APO 63x 1.4 NA oil immersion objective with Leica Type F immersion oil. Parameters “Gain” and “Off-set” of the individual photomultiplier tubes were adjusted between experiments in order to obtain optimal image acquisition avoiding saturation. For multi-channel image acquisition, the channels were scanned in a sequential recording mode to avoid spectral cross-talk caused by overlapping excitation and/or emission spectra of fluorophores. Acquisition mode “XYZ” and image resolutions (pixels/image) of 512 × 512 or 1024 × 1024 were selected and pinhole size was set to 1 Airy Unit. Depending on acquisition requirements the scan speed was set as either 400 or 700 Hz and for single section images, the same optical section was scanned 3x to generate a line average image. Captured images were then analysed using ImageJ. […]

[2] = tested on: actin architecture in A431 cells; test: Actin cytoskeleton visualisation (Rh-P staining, confocal microscopy); type: cell-based
Protocol: Analysis was performed on a Leica SP5 confocal laser scanning microscope, equipped with laser lines: 405 Blue Diode (Excitation wavelength 405 nm for Hoechst 33342) Argon (Excitation wavelength 488 nm for Alexa 488 or EGFP), Helium Neon Laser 1 (Excitation wavelength 543 nm for Tetramethyl-Rhodamine Phalloidin (Rh-P)) and Laser 2 (Excitation wavelength 633 nm for Alexa 647 conjugates). All images presented in this study were obtained using a HCX PL APO 63x 1.4 NA oil immersion objective with Leica Type F immersion oil. Parameters “Gain” and “Off-set” of the individual photomultiplier tubes were adjusted between experiments in order to obtain optimal image acquisition avoiding saturation. For multi-channel image acquisition, the channels were scanned in a sequential recording mode to avoid spectral cross-talk caused by overlapping excitation and/or emission spectra of fluorophores. Acquisition mode “XYZ” and image resolutions (pixels/image) of 512 × 512 or 1024 × 1024 were selected and pinhole size was set to 1 Airy Unit. Depending on acquisition requirements the scan speed was set as either 400 or 700 Hz and for single section images, the same optical section was scanned 3x to generate a line average image. Captured images were then analysed using ImageJ. In some cases (live cell imaging) the same cells were also imaged using […] microscopy (DIC).
A recently described method was utilised giving information on actin architecture at different regions of the cells termed basal and cell body and apex (CBA). For actin staining, HeLa (0.5 × 10^6 cells/well) or A431 (1.0 × 10^6 cells/well) cells in 2.5 mL D-MEM containing 10% FBS were seeded on round borosilicate No.1.5 cover slips in 6 –well plates and allowed to adhere for 24 hr at 37 °C/5% CO2, to reach a confluence of ~80%. The cells were then treated with actin disrupters as described above, washed 3x with PBS and fixed for 15 min at room temperature with 3% PFA in PBS. Cells were then washed 3x with PBS and permeabilised with 0.2% Triton X-100 in PBS at room temperature for 5 min, washed 3x with PBS and stained for cell nuclei with 1.0 µg/ml Hoechst 33342 in PBS and for polymerised actin with 1.0 µg/ml Rh-P in PBS for 15 min at room temperature. The cells were finally washed 3x with PBS and once with distilled water, coverslips were mounted in DAKO mounting medium on glass microscope slides and imaged by confocal microscopy.

[3] = tested on: HeLa; conditions: cited from earlier work
Source text: (§2) Cyt D binds to the fast-growing ends of actin nuclei and filaments, preventing addition of monomeric actin to these sites. […] Here we further explored these contradictory effects by also performing uptake studies with recomb ...

[4] = tested on: A431; conditions: cited from earlier work
Source text: as §2

[5] = tested on: A431 cells; test: Flow cytometry of cellular uptake of EGFP-R8 in the presence of actin inhibitors; type: cell-based; conditions: for Normalised Fluoresence Intensity (EGFP-R8): three independent experiments
Protocol: (§3) A431 cells were seeded onto 12-well plates and cultured for 24 hr to be ~80% confluent on the day of experiment. Cells were washed twice with PBS and then incubated with diluent control (DMSO/dH2O) or actin inhibitors as previously described. They were then loaded with serum-free DMEM containing either 2 µM EGFP-R8, 5 µg/ml TF-647 or 0.1 mg/ml Dex-647 in the presence or absence of actin inhibitors for times stipulated in the figure legends. The plates were then placed on ice to prevent further uptake and washed 3x with either ice-cold PBS or 0.5 mg/ml heparin in PBS. To remove the plasma membrane bound TF, cells were washed 3x with ice-cold PBS followed by an incubation for 1 min in ice-cold acid wash (0.2 M acetic acid, 0.2 M NaCl, pH 2.0)[33]. All cells were then washed twice with PBS at room temperature before trypsinisation at 37 °C for 5 min before placing the detached cells in centrifuge tubes and centrifuging at 4 °C for 3 min at 800 × g. The obtained cell suspension was washed 3x with ice-cold PBS and finally resuspended in 300 µl ice-cold PBS for measurement of cell-associated fluorescence (cell gate 50,000 cells) by flow cytometry on a BD FACSVerse utilising a 488 laser and 527/32 filter for EGFP analysis and a 633 nm laser and 660/10 filter for Alexa 647. Cells were gated using FSC-A/SSC-A to isolate single cell populations and analysed using FlowJo.
Flow cytometry measurements represent the mean fluorescence from three independent experiments performed in duplicate, where each individual data point was the geometric mean. A two-tailed unpaired Students t-test was used to test for differences within experiments. Significant differences were classed as having a P value of < 0.05.

[6] = tested on: A431 cells; test: Flow cytometry of transferrin-Alexa647 uptake with acid wash; type: cell-based; conditions: 10 µM Cyt D, 15 min preincubation, then 5 µg/ml TF-647 for 30 min with Cyt D, acid washing of surface label, three separate experiments
Protocol: as §3, with “All cells were then washed twice with PBS at room temperature before trypsinisation at 37 °C for 5 min before placing the detached cells in centrifuge tubes and centrifuging at 4 °C for 3 min at 800 × g.” left out
Flow cytometry measurements represent the mean fluorescence from three independent experiments performed in duplicate, where each individual data point was the geometric mean. […]

[7] = tested on: HeLa cells; test: Live cell confocal microscopy of uptake of endocytic probes and R8 conjugates, with or without Cyt D; type: cell-based; conditions: 10 µM Cyt D, 15 min preincubation
Protocol: as §1, with “They were then washed once with PBS, prior to the addition of 2 mL of imaging medium (phenol red free RPMI, 20 mM HEPES pH 7.4) and analysis by live cell confocal microscopy.” left out
Cells were seeded on MatTek dishes as previously described and were washed with PBS before preincubation at 37 °C with diluent control (DMSO) or actin inhibitors: 10 µM Cyt D for 15 min; 0.1–1 µM Lat B for 30 min; 0.2–4 µM JAS for 45 min; 50–100 µM Y27632 for 4 hr in serum-free D-MEM at 37 °C/5% CO2. […] EGFP-R8 (2 µM) was then added for 1 hr in the absence or presence of 10 µM Cyt D. EGFP-R8 and Dex-647 subcellular distribution was then analysed in live cells using confocal microscopy. […]

SMILES | effect on internalisation of EGFP-R8 ([1]; 10 µM Cyt D, 15 min preincubation, then 2 µM EGFP-R8 for 1 hr with Cyt D, heparin wash) | effect on uptake of R8-Alexa488 ([1]; 10 µM Cyt D, 15 min preincubation, then 2 µM R8-Alexa488 for 1 hr with Cyt D, heparin wash) | effect on uptake of dextran-Alexa647 ([1]; 10 µM Cyt D, 15 min preincubation, then 0.1 mg/ml 10 kDa Dex-647 for 1 hr with Cyt D) | effect on actin organisation ([2]; Cyt D at concentrations >5 µM) | effect on uptake of dextran ([3]; HeLa cells) | effect on uptake of Alexa488-CPPs R8 and Tat ([3]; HeLa, flow cytometry) | effect on uptake of Alexa488-CPPs R8 and Tat ([4]; A431, flow cytometry) | effect on uptake of dextran ([4]; A431 cells) | Normalised Fluoresence Intensity (EGFP-R8) ([5]; 10 µM Cyt D, 15 min preincubation, then 2 µM EGFP-R8 for 1 hr with Cyt D, geometric means, normalised to diluent control) | fold increase in intracellular fluorescence (EGFP-R8 uptake) ([5]; 10 µM Cyt D, 15 min preincubation, then 2 µM EGFP-R8 for 1 hr with Cyt D, serum-free D-MEM, 37 °C, washed, trypsinised, vs diluent control, P = 0.0036, three independent experiments) [fold] | effect on fluorescence uptake of transferrin [6] | effect on internalisation of R8-Alexa 488 ([7]; then 2 µM R8-Alexa 488 for 1 hr with Cyt D, heparin wash) | effect on cell associated transferrin fluorescence ([7]; then 5 µg/ml TF-647 for 30 min with Cyt D, vs control) | effect on EGFP-R8 uptake ([1]; 2–4 µM JAS, 45 min preincubation, then 2 µM EGFP-R8 for 1 hr with JAS) | effect on actin organisation ([2]; A431 cells, 0.2 µM JAS, 45 min, Rh-P staining, basal and CBA regions) | effect on actin organisation ([2]; A431 cells, 2 µM JAS, 45 min, Rh-P staining) | effect on actin organisation (actin staining) ([2]; A431 cells, 4 µM JAS, 45 min, Rh-P staining) | Normalised Fluoresence Intensity (EGFP-R8) ([5]; 4 µM JAS, 45 min preincubation, then 2 µM EGFP-R8 for 1 hr with JAS, mean of geometric means) | fold increase in fluorescence (EGFP-R8 uptake) ([5]; 4 µM JAS, 45 min preincubation, then 2 µM EGFP-R8 for 1 hr with JAS, vs diluent control (0.4% v/v DMSO), P = 0.0025)
C=C1[C@@H](C)[C@H]2[C@H](Cc3ccccc3)NC(=O)[C@]23[C@H](OC(C)=O)/C=C/[C@@](C)(O)C(=O)[C@@H](C)C/C=C/[C@H]3[C@@H]1O [Cyt D, cytochalasin D] | dramatically enhanced | less of a noticeable reduction in uptake; also recorded: inhibition | dramatically increased | completely destroys actin organisation | no effect | inhibited | inhibited | increased uptake | 4.55 | 4.5 | no difference in fluorescence uptake | inhibited; also recorded: reduction in uptake | not markedly different |  |  |  |  |  | 
C/C1=C\[C@H](C)C[C@H](C)OC(=O)C[C@H](c2ccc(O)cc2)NC(=O)[C@@H](Cc2c(Br)[nH]c3ccccc23)N(C)C(=O)[C@H](C)NC(=O)[C@@H](C)C1 [JAS, Jasplakinolide] |  |  |  |  |  |  |  |  |  |  |  |  |  | dramatic increase | actin staining was more prominent on the cell periphery | actin staining appeared in large clumps | completely lost from all cells | 4.00 | four
